Holding throughout (format): cell-based
For one test, the system named is U937 cells. The test can be described thus: U937 cell growth inhibition (direct antitumor action, CellTiterGlo). The conditions noted are these: for IC50: U937 cell growth inhibition, 4 days culture; for direct antitumor activity (in words): U937 growth inhibition. The method, then: (§1) The direct antitumor action of bisphosphonic acid POM ester and bisphosphonic acid was studied by comparison using U937.
(§2) The direct antitumor action of various bisphosphonic acid POM esters was studied by comparison using U937 and EJ-1. The measurement was performed according to Experimental Example 2 and Experimental Example 4.
(In general: Cellular ATP, detected with luciferase, serves as a proxy for viable cell number.)

For another test, the system named is EJ-1 cells / γδ T cells. The test is described as follows: TNF-α production from γδ T cells stimulated by compound-pretreated EJ-1 cells (indirect antitumor action, ELISA). The conditions noted are these: for EC50: EJ-1 pretreated 4 hr with compound, 16 hr with γδ T cells, TNF-α ELISA, read-out: TNF-α50; for TNF-α production induction activity (in words): EJ-1 pretreated with compound, γδ T cells. The protocol: The indirect antitumor action of bisphosphonic acid POM esters and bisphosphonic acids was studied by comparison using EJ-1. In principle, EJ-1 is treated with a compound, washed, and reacted with γδ T cells, and the cytotoxic ability is studied by comparison, by quantifying TNF-α produced by γδ T cells during cell disordering. TNF-α is generally used as an index of γδ T cell induction ability and/or proliferative capacity, and γδ T cells are considered to be induced and/or proliferated in proportion to the TNF-α amount (Journal of Immunology, 154, 5986-5994 (1995)). Since the produced TNF-α is what is called a tumor necrosis factor, it is considered to have an action to lower proliferation of cancer cells or induce cell death.
Thereto was added a solution (500 μl) of compounds 3, 5, 6, 7, which are bisphosphonic acid POM ester derivatives, obtained by serially diluting 10 mM stock solution 10-fold from 20 μM, or a solution (500 μl) of bisphosphonic acid 10, 12, 13, 14 compound obtained by serially diluting 10-fold from 200 μM, and the cells were suspended well. These conical tubes were stood at 37° C. for 4 hr, and the cells were washed 3 times with 5 ml of culture medium. To these cells was added 500 μl of medium, and the cells were suspended well. […] The cell culture medium was suspended well, and the plate was centrifuged at 1,700 rpm, 4° C. for 2 min and the culture supernatant (150 μl) was taken and placed in another round-bottomed 96 well plate. The plate was frozen at −80° C. overnight, left standing at room temperature for 1 hr, stirred well and 100 μl thereof was subjected to ELISA of TNF-α. The content of TNF-α was calculated from the analytical curve of TNF-α. These were performed in triplicate, and a graph showing bisphosphonic acid POM ester derivative and the corresponding bisphosphonic acid as one pair was plotted. […] The results of bisphosphonic acid POM ester derivative are shown by -●-, and the results of bisphosphonic acid are shown by -◯-.
The indirect antitumor action of bisphosphonic acid POM esters and bisphosphonic acids was quantitatively studied by comparison using EJ-1. […] Thereto was added a solution (500 μl) of a bisphosphonic acid POM ester derivative obtained by serially diluting 10 mM stock solution 10-fold from 20 μM, or a bisphosphonic acid solution (500 μl) serially diluted 10-fold from 200 μM was added, and the cells were suspended well. These conical tubes were stood at 37° C. for 4 hr, and the cells were washed 3 times with 5 ml of culture medium. To these cells was added 500 μl of medium, and the cells were suspended well. […] The cell culture medium was suspended well, and the plate was centrifuged at 1,700 rpm, 4° C. for 2 min and the culture supernatant (150 μl) was taken and placed in another round-bottomed 96 well plate. The plate was frozen at −80° C. overnight, left standing at room temperature for 1 hr, stirred well and 100 μl thereof was subjected to ELISA of TNF-α. The content of TNF-α was calculated from the analytical curve of TNF-α. These were performed in triplicate, and a half of the concentration of compounds 1-7, which are bisphosphonic acid POM ester derivatives, and compounds 8-14, which are bisphosphonic acids, necessary for producing the maximum amount of TNF-α from γδ T cells was calculated as TNF-α50, and summarized in Table 6.
Therefore, the TNF-α50 value of various bisphosphonic acid POM ester derivatives was calculated. […] Thereto was added a solution (500 μl) of compounds 1-7 and 15-39, which are bisphosphonic acid POM ester derivatives, and compound 42, which is other bisphosphonic acid ester derivative, obtained by serially diluting 10 mM stock solution 10-fold from 20 μM, and the cells were suspended well. These conical tubes were stood at 37° C. for 4 hr, and the cells were washed 3 times with 5 ml of culture medium. To these cells was added 500 μl of medium, and the cells were suspended well. […]
In general terms: ELISA stands for enzyme-linked immunosorbent assay.

A further test has as its system EJ-1 cells. The test is described as follows: EJ-1 cell growth inhibition (direct antitumor action, CellTiterGlo). The conditions noted are these: for IC50: EJ-1 (bladder cancer) growth inhibition, 4 days culture; for direct antitumor activity (in words): EJ-1 growth inhibition. The protocol: as §1
The direct antitumor action of bisphosphonic acid POM ester derivatives and bisphosphonic acids was studied by comparison using EJ-1. It was performed in the same manner as in Experimental Example 1 except that EJ-1 was used as the cell to be used. For recovery of the cells, a conventional EDTA trypsin treatment was performed.
The direct antitumor action of bisphosphonic acid POM esters and bisphosphonic acids was studied by comparison using EJ-1. It was performed in the same manner as in Experimental Example 2 except that EJ-1 was used as the cell to be used. For recovery of the cells, a conventional EDTA trypsin treatment was performed.
as §2

Read-outs that look alike come from different tables or passages of the source.

What is called IC50 is the concentration that gives 50% inhibition. Higher therefore signals a need for much substance.

`CN(CC(P(=O)(OCOC(=O)C(C)(C)C)OCOC(=O)C(C)(C)C)P(=O)(OCOC(=O)C(C)(C)C)OCOC(=O)C(C)(C)C)c1ccccn1` [Compound 1, tetrakispivaloyloxymethyl 2-(methylpyridin-2-ylamino)ethylidene-1,1-bisphosphonate]: the values for the IC50 in the test on U937 cells and in the test with EJ-1 cells were 5.3 µM and 11 µM, respectively. For the same molecule, the EC50 with EJ-1 cells / γδ T cells was determined as 0.55 µM.
As for `Cc1cnc(NCC(P(=O)(OCOC(=O)C(C)(C)C)OCOC(=O)C(C)(C)C)P(=O)(OCOC(=O)C(C)(C)C)OCOC(=O)C(C)(C)C)s1` [Compound 34, tetrakispivaloyloxymethyl 2-(5-methylthiazol-2-ylamino)ethylidene-1,1-bisphosphonate], in the test with U937 cells, the IC50 is 2.5 µM and the “direct antitumor activity (in words)” value is reported as “high activity”. Also, in the test on EJ-1 cells / γδ T cells, the EC50 amounted to 0.063 µM and the “TNF-α production induction activity (in words)” value is on record as “high activity”. Also, in the test on EJ-1 cells, half-maximal inhibition (IC50) was put at 1.1 µM and the “direct antitumor activity (in words)” value is listed as “high activity”.
In the case of `Cc1cc(NCC(P(=O)(OCOC(=O)C(C)(C)C)OCOC(=O)C(C)(C)C)P(=O)(OCOC(=O)C(C)(C)C)OCOC(=O)C(C)(C)C)no1` [Compound 37, tetrakispivaloyloxymethyl 2-(5-methylisoxazol-3-ylamino)ethylidene-1,1-bisphosphonate], the half-inhibitory concentration (IC50) in the test on U937 cells stood at 7.9 µM; with EJ-1 cells, 16 µM. Besides, the EC50 with EJ-1 cells / γδ T cells is greater than 10 µM.
As to `CC(C)(C)C(=O)OCOP(=O)(OCOC(=O)C(C)(C)C)C(CNc1ncccc1Br)P(=O)(OCOC(=O)C(C)(C)C)OCOC(=O)C(C)(C)C` [Compound 2, tetrakispivaloyloxymethyl 2-(3-bromopyridin-2-ylamino)ethylidene-1,1-bisphosphonate], in the test on U937 cells, the concentration for half-maximal inhibition (IC50) is 0.68 µM and the “direct antitumor activity (in words)” value is given as “high activity”. For the same molecule, the EC50 in the test with EJ-1 cells / γδ T cells was 4.5 µM. For the same molecule, in the test with EJ-1 cells, the IC50 worked out at 2.3 µM and the “direct antitumor activity (in words)” value is on record as “high activity”.
Regarding `COc1ccc(-c2cccnc2NCC(P(=O)(OCOC(=O)C(C)(C)C)OCOC(=O)C(C)(C)C)P(=O)(OCOC(=O)C(C)(C)C)OCOC(=O)C(C)(C)C)cc1` [Compound 25, tetrakispivaloyloxymethyl 2-[3-(4-methoxyphenyl)pyridin-2-ylamino]ethylidene-1,1-bisphosphonate], the values for the IC50 in the test on U937 cells and with EJ-1 cells were 6.2 µM and 8.8 µM, respectively. Also, in the test with EJ-1 cells / γδ T cells, the EC50 is greater than 10 µM.
For `CC(C)(C)C(=O)OCOP(=O)(OCOC(=O)C(C)(C)C)C(CNc1cccc(Br)n1)P(=O)(OCOC(=O)C(C)(C)C)OCOC(=O)C(C)(C)C` [Compound 21, tetrakispivaloyloxymethyl 2-(6-bromopyridin-2-ylamino)ethylidene-1,1-bisphosphonate], the half-inhibitory concentration (IC50) came out at 6.1 µM with U937 cells and 9 µM in the test with EJ-1 cells. In addition, the EC50 with EJ-1 cells / γδ T cells is greater than 10 µM.
The corresponding values for `CCCCCCCCc1ccc(NCC(P(=O)(OCOC(=O)C(C)(C)C)OCOC(=O)C(C)(C)C)P(=O)(OCOC(=O)C(C)(C)C)OCOC(=O)C(C)(C)C)nc1` [Compound 22, tetrakispivaloyloxymethyl 2-(5-octanylpyridin-2-ylamino)ethylidene-1,1-bisphosphonate] are 3.4 µM, 3.7 µM and 4.8 µM.
As for `CCCCCCCCc1cccc(NCC(P(=O)(OCOC(=O)C(C)(C)C)OCOC(=O)C(C)(C)C)P(=O)(OCOC(=O)C(C)(C)C)OCOC(=O)C(C)(C)C)n1` [Compound 24, tetrakispivaloyloxymethyl 2-(6-octanylpyridin-2-ylamino)ethylidene-1,1-bisphosphonate], the 50% inhibitory concentration (IC50) with U937 cells amounted to 3 µM; in the test with EJ-1 cells, 6.3 µM. Moreover, in the test on EJ-1 cells / γδ T cells, the EC50 was greater than 10 µM.
In the case of `CC(C)(C)C(=O)OCOP(=O)(OCOC(=O)C(C)(C)C)C(CNc1ccncn1)P(=O)(OCOC(=O)C(C)(C)C)OCOC(=O)C(C)(C)C` [Compound 39, tetrakispivaloyloxymethyl 2-(pyrimidin-4-ylamino)ethylidene-1,1-bisphosphonate], in the test with U937 cells, the midpoint of inhibition, the IC50, lay at 0.65 µM and the “direct antitumor activity (in words)” value is on record as “particularly high activity”. Further, in the test on EJ-1 cells / γδ T cells, the EC50 was 0.062 µM and the “TNF-α production induction activity (in words)” value was “high activity”. Moreover, in the test on EJ-1 cells, the IC50 came out at 0.059 µM and the “direct antitumor activity (in words)” value is “particularly high activity”.
For `CC(C)(C)C(=O)OCOP(=O)(OCOC(=O)C(C)(C)C)C(CNc1ncccc1O)P(=O)(OCOC(=O)C(C)(C)C)OCOC(=O)C(C)(C)C` [Compound 27, tetrakispivaloyloxymethyl 2-(3-hydroxypyridin-2-ylamino)ethylidene-1,1-bisphosphonate], the IC50 in the test with U937 cells was 8.9 µM; in the test on EJ-1 cells it was 13 µM. Further, the EC50 in the test on EJ-1 cells / γδ T cells amounted to 4.6 µM.
With `Cc1cccnc1NCC(P(=O)(O)O)P(=O)(O)O` [Compound 8, 2-(3-methylpyridin-2-ylamino)ethylidene-1,1-bisphosphonic Acid, reference compound], the IC50 in the test with U937 cells (Homo sapiens, U-937, 96 h) was determined as 980 µM; in the test with EJ-1 cells (EJ1, 96 h), 13 µM. Besides, the EC50 with EJ-1 cells / γδ T cells (EJ1) was greater than 100 µM.
The corresponding values for `O=P(O)(O)C(CNc1ncccc1Br)P(=O)(O)O` [Compound 9, 2-(3-bromopyridin-2-ylamino)ethylidene-1,1-bisphosphonic Acid, reference compound] are 1100 µM, 970 µM and greater than 100 µM.
The corresponding values for `O=P(O)(O)C(CNc1ccc(F)cn1)P(=O)(O)O` [Compound 12, 2-(5-fluoropyridin-2-ylamino)ethylidene-1,1-bisphosphonic Acid, reference compound] are 68 µM, 260 µM and 49 µM.
`CC(C)(C)C(=O)OCOP(=O)(OCOC(=O)C(C)(C)C)C(CNc1ccc(-c2ccccc2)cn1)P(=O)(OCOC(=O)C(C)(C)C)OCOC(=O)C(C)(C)C` [Compound 19, tetrakispivaloyloxymethyl 2-(5-phenylpyridin-2-ylamino)ethylidene-1,1-bisphosphonate]: the half-inhibitory concentration (IC50) with U937 cells was 6.7 µM; in the test with EJ-1 cells, 9.5 µM. Moreover, the EC50 with EJ-1 cells / γδ T cells is greater than 10 µM.
With `Cc1csc(NCC(P(=O)(OCOC(=O)C(C)(C)C)OCOC(=O)C(C)(C)C)P(=O)(OCOC(=O)C(C)(C)C)OCOC(=O)C(C)(C)C)n1` [Compound 33, tetrakispivaloyloxymethyl 2-(4-methylthiazol-2-ylamino)ethylidene-1,1-bisphosphonate], the IC50 in the test with U937 cells was 5 µM; with EJ-1 cells it was 4.2 µM. For the same molecule, the EC50 in the test on EJ-1 cells / γδ T cells was 3.6 µM.
